The source of these data is the RepoRT retention time repository (doi:10.1021/acs.analchem.2c02893).

The nature of this series: RP, Thermo Scientific Acclaim RSLC 120 C18, 100 × 2.1 mm, 2.2 µm, 30 °C, 0.2 mL/min, estimated dead time 1.1 min; A: 90% water + 10% methanol + 0.01% formic acid + 5 mM ammonium formate, pH 3.61; B: methanol + 0.01% formic acid + 5 mM ammonium formate, pH 3.61; gradient (min/%B) 0/1 1/1 2/39 13/99.9 15/99.9 15.1/1 20.1/1. Particulars: stereoisomer not certain.
For the molecule `O=c1n(CCCN2CCN(c3cccc(Cl)c3)CC2)nc2ccccn12` [Trazodone], the LC retention time is 6.48 min.
Consider `CC12C=CC3=C4CCC(=O)C=C4CCC3C1CCC2O` (configuration not stated) [Trenbolone], for which the LC retention time was 8.89 min.
For the molecule `CC(C)(C)C(=O)C(Oc1ccc(Cl)cc1)n1cncn1` (configuration not stated) [Triadimefon], the LC retention time is 9.68 min.
The same measure for `CC(C)(C)C(O)C(Oc1ccc(Cl)cc1)n1cncn1` (configuration not stated) [Triadimenol]: 9.93 min.
For `CC(C)N(C(=O)SCC(Cl)=C(Cl)Cl)C(C)C` [Triallate], the LC retention time is 12.7 min.
`CC1(C)OC2CC3C4CCC5=CC(=O)C=CC5(C)C4(F)C(O)CC3(C)C2(C(=O)CO)O1` (configuration not stated) [Triamcinolone acetonide]: the LC retention time was 8.69 min.
For `Nc1nc(N)c2nc(-c3ccccc3)c(N)nc2n1` [Triamterene], the LC retention time was 4.68 min.
Take `COc1nc(C)nc(NC(=O)NS(=O)(=O)c2ccccc2OCCCl)n1` [Triasulfuron]: the LC retention time was 6.6 min.
`CCOC(=O)CSc1nc(C(C)(C)C)nn1C(=O)N(C)C` [Triazamate]: the LC retention time was 6.38 min.
For `OCc1nnc2n1-c1ccc(Cl)cc1C(c1ccccc1Cl)=NC2` [Triazolam-1-Hydroxymethyl (alpha-Hydroxy-Triazolam)], the LC retention time is 7.65 min.
Take `Cc1nnc2n1-c1ccc(Cl)cc1C(c1ccccc1Cl)=NC2` [Triazolam]: the LC retention time is 8.05 min.
As to `[O-][n+]1nc(-n2ccnc2)nc2ccc(Cl)cc21` [Triazoxide], the LC retention time is 8.37 min.
Regarding `COC(=O)c1ccccc1S(=O)(=O)NC(=O)N(C)c1nc(C)nc(OC)n1` [Tribenuron-methyl], the LC retention time is 7.94 min.
As for `CCCCSP(=O)(SCCCC)SCCCC` [Tribufos (Merphos oxide. DEF)], the LC retention time was 13.4 min.
Take `CCCCN(CCCC)CCCC` [Tributylamine]: the LC retention time is 5.28 min.
In the case of `COP(=O)(OC)C(O)C(Cl)(Cl)Cl` (configuration not stated) [Trichlorfon (Dylox)], the LC retention time is 5.23 min.
The same measure for `CSc1nc2cc(Oc3cccc(Cl)c3Cl)c(Cl)cc2[nH]1` [Triclabendazole]: 12 min.
In the case of `O=C(Nc1ccc(Cl)cc1)Nc1ccc(Cl)c(Cl)c1` [Triclocarban], the LC retention time was 12 min.
As for `COC(=O)COc1nc(Cl)c(Cl)cc1Cl` [Triclopyr-methylester], the LC retention time is 10.4 min.
As for `O=C(O)COc1nc(Cl)c(Cl)cc1Cl` [Triclopyr], the LC retention time is 7.85 min.
Turning to `Cc1cccc2sc3nncn3c12` [Tricyclazole], the LC retention time was 5.93 min.
On to `CCNc1nc(Cl)nc(N(CC)CC)n1` [Trietazine], for which the LC retention time was 10.2 min.
As for `CCOC(=O)CC(O)(CC(=O)OCC)C(=O)OCC` [Triethylcitrate], the LC retention time is 6.94 min.
For `CON=C(C(=O)OC)c1ccccc1CON=C(C)c1cccc(C(F)(F)F)c1` [Trifloxystrobin], the LC retention time is 11.6 min.
The result for `COc1cc(OC)nc(NC(=O)NS(=O)(=O)c2ncccc2OCC(F)(F)F)n1` [Trifloxysulfuron] reads 8.11 min; that for `CCCOCC(=Nc1ccc(Cl)cc1C(F)(F)F)n1ccnc1` [Triflumizole], 11.8 min; that for `O=C(NC(=O)c1ccccc1Cl)Nc1ccc(OC(F)(F)F)cc1` [Triflumuron], 11.2 min.
On to `CN1CCN(CCCN2c3ccccc3Sc3ccc(C(F)(F)F)cc32)CC1` [Trifluoperazine], for which the LC retention time was 10.2 min.
Take `O=C(CCCN1CCC(O)(c2cccc(C(F)(F)F)c2)CC1)c1ccc(F)cc1` [Trifluperidol]: the LC retention time is 7.42 min.
As to `CN(C)CCCN1c2ccccc2Sc2ccc(C(F)(F)F)cc21` [Triflupromazine], the LC retention time is 9.27 min.
The same measure for `COC(=O)c1cccc(C)c1S(=O)(=O)NC(=O)Nc1nc(OCC(F)(F)F)nc(N(C)C)n1` [Triflusulfuron-methyl]: 9.22 min; for `O=CNC(N1CCN(C(NC=O)C(Cl)(Cl)Cl)CC1)C(Cl)(Cl)Cl` (configuration not stated) [Triforine]: 8.65 min; for `COCCOCCOCCOC` [Triglyme]: 4.28 min.
As for `OC(CCN1CCCCC1)(c1ccccc1)C1CCCCC1` (configuration not stated) [Trihexyphenidyl. Benzhexol], the LC retention time is 7.86 min.
`CNC(=O)Oc1cc(C)c(C)c(C)c1.CNC(=O)Oc1cc(C)cc(C)c1C` [Trimethacarb (2.3.5-)]: the LC retention time was 8.4 min.
For `CNC(=O)Oc1cc(C)c(C)c(C)c1` [Trimethacarb (3.4.5-)], the LC retention time is 8.1 min.
With `COc1cc(C(=O)NCc2ccc(OCCN(C)C)cc2)cc(OC)c1OC` [Trimethobenzamide], the LC retention time is 4.86 min.
On to `COc1cc(C(=O)c2cnc(N)nc2N)cc(OC)c1OC` [Trimethoprim (Impurity B)], for which the LC retention time is 5.49 min.
As for `CCCCCCCC[N+](C)(C)C` [Trimethyloctylammonium], the LC retention time is 6.08 min.
The same measure for `CNCC(C)CN1c2ccccc2CCc2ccccc21` (configuration not stated) [Trimipramine-Nor]: 8.49 min; for `CC(CN(C)C)CN1c2ccccc2CCc2ccccc21` (configuration not stated) [Trimipramine]: 8.31 min.
The result for `CCOC(=O)C1CC(=O)C(=C(O)C2CC2)C(=O)C1` (configuration not stated) [Trinexapac-ethyl] reads 8.45 min; that for `Cc1ccc(C(=CCN2CCCC2)c2ccccn2)cc1` [Triprolidine], 6.28 min.
On to `CNCCC=C1c2ccccc2CCc2ccccc21` [Triptyline-Nor], for which the LC retention time is 8.51 min.
With `CC1(C)CCC(=Cc2ccc(Cl)cc2)C1(O)Cn1cncn1` (configuration not stated) [Triticonazole], the LC retention time was 10.1 min.
Turning to `CCOc1c(N)c2c(c(OCC)c1OCC)C(C1c3c(cc4c(c3OC)OCO4)CCN1C)OC2=O` (configuration not stated) [Tritoqualine], the LC retention time is 12 min.
For `CN(C)CCOCC(=O)NC12CC3CC(CC(C3)C1)C2` [Tromantadine], the LC retention time is 6.64 min.
`CCN(Cc1ccncc1)C(=O)C(CO)c1ccccc1` (configuration not stated) [Tropicamide]: the LC retention time is 6.03 min.
As to `CN1C2CCC1CC(OC(=O)c1c[nH]c3ccccc13)C2` (configuration not stated) [Tropisetron], the LC retention time is 5.09 min.
As for `O=C(OC1CC2CCC(C1)[N+]21CCCC1)C(O)(c1ccccc1)c1ccccc1` (configuration not stated) [Trospium], the LC retention time is 5.72 min.
In the case of `CC(C)(C)NCC(O)c1ccccc1Cl` (configuration not stated) [Tulobuterol], the LC retention time is 5.17 min.
Regarding `NC(Cc1cc(I)c(O)c(I)c1)C(=O)O` (configuration not stated) [Tyrosine-3.5-Diiodo], the LC retention time is 4.77 min.
On to `CCCOc1ccc(S(=O)(=O)NCCC2CCCN2C)cc1-c1nc2c(CCC)nn(C)c2c(=O)[nH]1` (configuration not stated) [Udenafil], for which the LC retention time is 7.83 min.
The same measure for `CC(C)(C)C(O)C(=Cc1ccc(Cl)cc1)n1cncn1` (configuration not stated) [Uniconazole]: 10.5 min.
With `Cc1onc(-c2ccccc2)c1-c1ccc(S(N)(=O)=O)cc1` [Valdecoxib], the LC retention time is 7.37 min.
As to `CC(C)C(N)C(=O)OCC(CO)OCn1cnc2c(=O)[nH]c(N)nc21` (configuration not stated) [Valganciclovir], the LC retention time was 2.71 min.
Consider `CCCCC(=O)N(Cc1ccc(-c2ccccc2-c2nn[nH]n2)cc1)C(C(=O)O)C(C)C` (configuration not stated) [Valsartan], for which the LC retention time was 9.21 min.
With `CNC(=O)C(C)SCCSP(=O)(OC)OC` (configuration not stated) [Vamidothion], the LC retention time is 5.02 min.
Regarding `CNC(CC(C)C)C(=O)NC1C(=O)NC(CC(N)=O)C(=O)NC2C(=O)NC3C(=O)NC(C(=O)NC(C(=O)O)c4cc(O)cc(O)c4-c4cc3ccc4O)C(O)c3ccc(c(Cl)c3)Oc3cc2cc(c3OC2OC(CO)C(O)C(O)C2OC2CC(C)(N)C(O)C(C)O2)Oc2ccc(cc2Cl)C1O` (configuration not stated) [Vancomycin], the LC retention time was 3.26 min.
For `CCCc1nc(C)c2c(=O)[nH]c(-c3cc(C(=O)CN4CCN(CC)CC4)ccc3OCC)nn12` [Vardenafil-Acetyl], the LC retention time was 7.16 min.
Take `CCCc1nc(C)c2c(=O)[nH]c(-c3cc(S(=O)(=O)N4CCN(CCO)CC4)ccc3OCC)nn12` [Vardenafil-Hydroxy]: the LC retention time is 8.05 min.
Take `CCCc1nc(C)c2c(=O)[nH]c(-c3cc(S(=O)(=O)N4CCCCC4)ccc3OCC)nn12` [Vardenafil-Pseudo]: the LC retention time was 10.6 min.
For the molecule `CCCc1nc(C)c2c(=O)[nH]c(-c3cc(S(=O)(=O)N4CCN(CC)CC4)ccc3OCC)nn12` [Vardenafil], the LC retention time is 8.11 min.
In the case of `c1cnc2cc3c(cc2n1)C1CNCC3C1` [Varenicline], the LC retention time is 3.63 min.
On to `C=C(Cl)CSC(=S)N(CC)CC` [Vegadex (Sulfallate)], for which the LC retention time was 11.1 min.
As to `COc1ccc(C(CN)C2(O)CCCCC2)cc1` [Venlafaxine- D L-N N-Didesmethyl], the LC retention time was 6.34 min.
Consider `CNCC(c1ccc(O)cc1)C1(O)CCCCC1` [Venlafaxine-D L-N O-Didesmethyl], for which the LC retention time was 4.91 min.
Turning to `CNCC(c1ccc(OC)cc1)C1(O)CCCCC1` (configuration not stated) [Venlafaxine-N-Desmethyl (norvenlafaxine)], the LC retention time is 6.18 min.
On to `COc1ccc(C(C[N+](C)(C)[O-])C2(O)CCCCC2)cc1` (configuration not stated) [Venlafaxine-N-oxide], for which the LC retention time is 6.94 min.
With `CN(C)CC(c1ccc(O)cc1)C1(O)CCCCC1` (configuration not stated) [Venlafaxine-O-Desmethyl (Desvenlafaxine)], the LC retention time was 4.76 min.
Consider `COc1ccc(C(CN(C)C)C2(O)CCCCC2)cc1` (configuration not stated) [Venlafaxine], for which the LC retention time was 6.14 min.
Turning to `COc1ccc(CCNCCCC(C#N)(c2ccc(OC)c(OC)c2)C(C)C)cc1OC` (configuration not stated) [Verapamil-Nor], the LC retention time is 6.96 min.
